In patent US20260042731A1, “(2,4-DICHLOROPHENOXY)ACETIC ACID ANALOGS” (CORTEVA AGRISCIENCE LLC, priority 2022, published 2026):
Read-outs that look alike come from different tables or passages of the source.

Legend:
[1] = tested on: Abutilon theophrasti (ABUTH), velvetleaf; experiment: Postemergence herbicide evaluation, growth of Abutilon theophrasti (ABUTH); assay type: in vivo; conditions: Abutilon theophrasti, post-emergence, read-out: AVE. ABUTH, percent reduction in plant size relative to the untreated control; for pest or weed control at 280 g/ha: 280 g ae/ha; for pest or weed control at 560 g/ha: 560 g ae/ha
[2] = Volatility of compounds measured by thermogravimetric analysis (TGA); assay type: physicochemical
[3] = tested on: weeds ABUTH, AMATA, AMBEL, CHEAL, ERICA; experiment: Postemergence herbicide evaluation, overall average % weed control (ABUTH, AMATA, AMBEL, CHEAL, ERICA); assay type: in vivo; conditions: post-emergence, read-out: Overall Ave % Weed Control; for pest or weed control at 280 g/ha: 280 g ae/ha; for pest or weed control at 560 g/ha: 560 g ae/ha
[4] = tested on: glyphosate resistant Conyza canadensis (L.) (ERICA), horseweed; experiment: Postemergence herbicide evaluation, growth of Conyza canadensis (ERICA); assay type: in vivo; conditions: Erigeron canadensis, post-emergence, read-out: Ave. ERICA, percent reduction in plant size relative to the untreated control; for pest or weed control at 280 g/ha: 280 g ae/ha; for pest or weed control at 560 g/ha: 560 g ae/ha
[5] = tested on: Chenopodium album (CHEAL), common lambsquarters; experiment: Postemergence herbicide evaluation, growth of Chenopodium album (CHEAL); assay type: in vivo; conditions: Chenopodium album, post-emergence, read-out: Ave. CHEAL, percent reduction in plant size relative to the untreated control; for pest or weed control at 280 g/ha: 280 g ae/ha; for pest or weed control at 560 g/ha: 560 g ae/ha
[6] = tested on: Amaranthus rudis (AMATA), tall water hemp; experiment: Postemergence herbicide evaluation, growth of Amaranthus rudis (AMATA); assay type: in vivo; conditions: Amaranthus tuberculatus, post-emergence, read-out: Ave. AMATA, percent reduction in plant size relative to the untreated control; for pest or weed control at 280 g/ha: 280 g ae/ha; for pest or weed control at 560 g/ha: 560 g ae/ha
[7] = tested on: Ambrosia artemisiifolia (AMBEL), common ragweed; experiment: Postemergence herbicide evaluation, growth of Ambrosia artemisiifolia (AMBEL); assay type: in vivo; conditions: Ambrosia artemisiifolia, post-emergence, read-out: AVE. AMBEL, percent reduction in plant size relative to the untreated control; for pest or weed control at 280 g/ha: 280 g ae/ha; for pest or weed control at 560 g/ha: 560 g ae/ha

| Structure (SMILES) | pest or weed control at 280 g/ha ([1]; 168 h, 7 DAA) [%] | pest or weed control at 560 g/ha ([1]; 168 h, 7 DAA) [%] | pest or weed control at 280 g/ha ([1]; 336 h, 14 DAA) [%] | pest or weed control at 560 g/ha ([1]; 336 h, 14 DAA) [%] | pest or weed control at 280 g/ha ([1]; 504 h, 21 DAA) [%] | pest or weed control at 560 g/ha ([1]; 504 h, 21 DAA) [%] | TGA Data (rate of weight loss, volatility) [2] [µg/min] | pest or weed control at 280 g/ha ([3]; 168 h, 7 DAA) [%] | pest or weed control at 560 g/ha ([3]; 168 h, 7 DAA) [%] | pest or weed control at 280 g/ha ([3]; 336 h, 14 DAA) [%] | pest or weed control at 560 g/ha ([3]; 336 h, 14 DAA) [%] | pest or weed control at 280 g/ha ([3]; 504 h, 21 DAA) [%] | pest or weed control at 560 g/ha ([3]; 504 h, 21 DAA) [%] | pest or weed control at 280 g/ha ([4]; 168 h, 7 DAA) [%] | pest or weed control at 560 g/ha ([4]; 168 h, 7 DAA) [%] | pest or weed control at 280 g/ha ([4]; 336 h, 14 DAA) [%] | pest or weed control at 560 g/ha ([4]; 336 h, 14 DAA) [%] | pest or weed control at 280 g/ha ([4]; 504 h, 21 DAA) [%] | pest or weed control at 560 g/ha ([4]; 504 h, 21 DAA) [%] | pest or weed control at 280 g/ha ([5]; 168 h, 7 DAA) [%] | also measured |
| --- | --- | --- | --- | --- | --- | --- | --- | --- | --- | --- | --- | --- | --- | --- | --- | --- | --- | --- | --- | --- | --- |
| CC(C)ONC(=O)COc1ccc(Cl)cc1Cl [Compound D23] | 70 | 90 | 93.5 | 99 | 99 | 100 | 0.6973 | 78 | 82 | 92 | 94.1 | 92.9 | 96.5 | 80 | 77.5 | 100 | 97.5 | 99 | 100 | 80 | pest or weed control at 560 g/ha ([5]; 168 h, 7 DAA): 85%; pest or weed control at 280 g/ha ([5]; 336 h, 14 DAA): 96.5%; pest or weed control at 560 g/ha ([5]; 336 h, 14 DAA): 99%; pest or weed control at 280 g/ha ([5]; 504 h, 21 DAA): 94%; pest or weed control at 560 g/ha ([5]; 504 h, 21 DAA): 95%; pest or weed control at 280 g/ha ([6]; 168 h, 7 DAA): 82.5%; pest or weed control at 560 g/ha ([6]; 168 h, 7 DAA): 82.5%; pest or weed control at 280 g/ha ([6]; 336 h, 14 DAA): 90%; pest or weed control at 560 g/ha ([6]; 336 h, 14 DAA): 90%; pest or weed control at 280 g/ha ([6]; 504 h, 21 DAA): 72.5%; pest or weed control at 560 g/ha ([6]; 504 h, 21 DAA): 87.5%; pest or weed control at 280 g/ha ([7]; 168 h, 7 DAA): 77.5%; pest or weed control at 560 g/ha ([7]; 168 h, 7 DAA): 75%; pest or weed control at 280 g/ha ([7]; 336 h, 14 DAA): 80%; pest or weed control at 560 g/ha ([7]; 336 h, 14 DAA): 85%; pest or weed control at 280 g/ha ([7]; 504 h, 21 DAA): 100%; pest or weed control at 560 g/ha ([7]; 504 h, 21 DAA): 100% |
| O=C(COc1ccc(Cl)cc1Cl)Nc1nccs1 [Compound D24] | 40 | 47.5 | 55 | 65 | 70 | 70 | 0.08298 | 70 | 70 | 81.5 | 84.5 | 87 | 91.4 | 70 | 75 | 95 | 87.5 | 97.5 | 99.5 | 82.5 | pest or weed control at 560 g/ha ([5]; 168 h, 7 DAA): 75%; pest or weed control at 280 g/ha ([5]; 336 h, 14 DAA): 90%; pest or weed control at 560 g/ha ([5]; 336 h, 14 DAA): 92.5%; pest or weed control at 280 g/ha ([5]; 504 h, 21 DAA): 90%; pest or weed control at 560 g/ha ([5]; 504 h, 21 DAA): 95%; pest or weed control at 280 g/ha ([6]; 168 h, 7 DAA): 80%; pest or weed control at 560 g/ha ([6]; 168 h, 7 DAA): 85%; pest or weed control at 280 g/ha ([6]; 336 h, 14 DAA): 87.5%; pest or weed control at 560 g/ha ([6]; 336 h, 14 DAA): 85%; pest or weed control at 280 g/ha ([6]; 504 h, 21 DAA): 77.5%; pest or weed control at 560 g/ha ([6]; 504 h, 21 DAA): 92.5%; pest or weed control at 280 g/ha ([7]; 168 h, 7 DAA): 77.5%; pest or weed control at 560 g/ha ([7]; 168 h, 7 DAA): 67.5%; pest or weed control at 280 g/ha ([7]; 336 h, 14 DAA): 80%; pest or weed control at 560 g/ha ([7]; 336 h, 14 DAA): 92.5%; pest or weed control at 280 g/ha ([7]; 504 h, 21 DAA): 100%; pest or weed control at 560 g/ha ([7]; 504 h, 21 DAA): 100% |
